This assay is described as follows: Effect of rapamycin on blood phosphorus concentration after refeeding to protein-undernourished rats. Format: in vivo, male Wistar rats. The conditions noted are these: rapamycin 2 mg/mL at 0.75 mL/kg i.p., mean ± SD, n=8. How it is done:
Using male Wistar rats (7 weeks old at time of purchase; Charles River Laboratories Japan, Inc.), a group of rats fed with a purified diet having a protein content of 2.5% (referred to below as “low-protein diet”) for at least 3 weeks, and a group of rats fed with a purified diet having a protein content of 20% (referred to below as “normal diet”) for at least 3 weeks were prepared. […] Each animal had access to tap water ad libitum for at least 3 weeks. After fasting with ad libitum access to water for 24 hours, jugular vein catheterization was performed under isoflurane anesthesia, and the other end of the catheter was passed under the skin, exited from the back, and connected to a syringe containing physiological saline via a harness. The rats were then kept in individual metabolic cages with the catheter being open. Post-operatively, an antibiotic (ampicillin) was injected intramuscularly at a dose of 5 mg/100 μL/rat. After recovery from anesthesia, blood (400 μL) was collected from the catheter placed in the jugular vein, then injected into a tube containing sodium heparin, and stored on ice. The blood was promptly fractionated to obtain plasma, and the inorganic phosphorus concentration in the plasma was promptly measured using a Fuji Dry Chem Slide (produced by Fuji Film Corporation). The rats were grouped into predetermined groups using the obtained measurements and body weight data as indices.
The physiological saline was replaced with a nutrient infusion preparation or an electrolyte preparation at 5 p.m. to start administration to the animals. The nutrient infusion preparation used was Elneopa-NF No. 2 infusion (produced by Otsuka Pharmaceutical Factory Co., Ltd.). The electrolyte formulation used was an electrolyte infusion preparation composed of the electrolyte contained in Elneopa-NF No. 2 infusion. […] Immediately before administering these preparations, either a solvent (dimethyl sulfoxide, produced by Fujifilm Wako Pure Chemicals Corporation; referred to below as “DMSO”) or a solution of 2 mg/mL of rapamycin (produced by Tokyo Chemical Industry Co., Ltd.) whose side effect of inhibiting muscle synthesis was known was intraperitoneally administered by bolus at a dose of 0.75 mL/kg in each case. […]
Starting at 9 a.m. on the day after the start of administration, blood was collected from the abdominal aorta by using a syringe under isoflurane anesthesia. […] The concentration of inorganic phosphorus in the plasma was determined by an enzymatic method (Determiner L, produced by Hitachi Chemical Diagnostics Systems Co., Ltd.).

On to `CO[C@H]1C[C@@H]2CC[C@@H](C)[C@@](O)(O2)C(=O)C(=O)N2CCCC[C@H]2C(=O)O[C@H]([C@H](C)C[C@@H]2CC[C@@H](O)[C@H](OC)C2)CC(=O)[C@H](C)/C=C(\C)[C@@H](O)[C@@H](OC)C(=O)[C@H](C)C[C@H](C)/C=C/C=C/C=C/1C` [rapamycin], for which the “Plasma phosphorus concentration after administration” value (shortened to “Plasma phosphorus concentration”) (LPD (electrolyte + rapamycin): low-protein diet rats, electrolyte infusion 16 h) worked out at 6.1 ± 0.6 mg/dL; the “Plasma phosphorus concentration” value (LPD (refeeding + rapamycin): low-protein diet rats, nutrient infusion 16 h) is recorded as 4.2 ± 0.4 mg/dL; the “Plasma phosphorus concentration” value (NPD (electrolyte + rapamycin): normal diet rats, electrolyte infusion 16 h) turned out to be 6.4 ± 0.4 mg/dL; the “Plasma phosphorus concentration” value (NPD (refeeding + rapamycin): normal diet rats, nutrient infusion 16 h) worked out at 4.7 ± 0.4 mg/dL.

(Values after patent US20250000850A1, “COMPOSITION USED TO PREVENT OR SUPPRESS REFEEDING SYNDROME” (OTSUKA PHARMACEUTICAL FACTORY, INC., priority 2021, published 2025).)
